According to patent US20240327364A1, “THERAPEUTIC TARGETING OF GPR68 TO INDUCE FERROPTOSIS” (University Of Maryland, Baltimore, priority 2023, published 2024):

Key:
NEK9 = target: T1, NEK9 (Homo sapiens, UniProt Q8TD19); assay: KinomeScan; assay type: binding; details: read-out: % Control
T1 construct: purchased DiscoveRx

CASK = target: T2, CASK (Homo sapiens, UniProt O14936); assay: KinomeScan; assay type: binding; details: read-out: % Control
T2 construct: purchased DiscoveRx (KinomeScan service)

ACVRLI = target: T3, ACVRLI (Homo sapiens, UniProt P37023); assay: KinomeScan; assay type: binding; details: read-out: % Control
T3 construct: purchased DiscoveRx

EPHA7 = target: T4, EPHA7 (Homo sapiens, UniProt Q15375); assay: KinomeScan; assay type: binding; details: read-out: % Control
T4 construct: purchased DiscoveRx (Fremont, CA)

KIT(D816H) = target: T5, KIT(D816H) (Homo sapiens, UniProt P10721, D816H); assay: KinomeScan; assay type: binding; details: read-out: % Control
T5 construct: purchased DiscoveRx

AURKA = target: T6, AURKA (Homo sapiens, UniProt O14965); assay: KinomeScan; assay type: binding; details: read-out: % Control
T6 construct: purchased DiscoveRx (Fremont, CA)

PAK6 = target: T7, PAK6 (Homo sapiens, UniProt Q9NQU5); assay: KinomeScan; assay type: binding; details: read-out: % Control
T7 construct: purchased DiscoveRx

TNK2 = target: T8, TNK2 (Homo sapiens, UniProt Q07912); assay: KinomeScan; assay type: binding; details: read-out: % Control
T8 construct: purchased DiscoveRx (Fremont, CA)

PRP4 = target: T9, PRP4 (Homo sapiens, UniProt Q13523); assay: KinomeScan; assay type: binding; details: read-out: % Control
T9 construct: purchased DiscoveRx (Fremont, CA)
Experimental: (§1) GPCR profiling assays were performed by Millipore (St. Louis, MO) using in cells expressing Gα15, a promiscuous G protein that enhances GPCR coupling to downstream Ca2+ signaling pathways. KinomeScan was conducted by DiscoveRx (Fremont, CA).
(§2) To identify the target of OGM1, the molecule was profiled for binding in a panel of 442 kinases (KinomeScan™, DiscoveRx™) and assessed its activity against 158 GPCRs in a single-point assay in Chem-1 cells that uses a promiscuous Gα15 protein to trigger calcium flux (see Table 9 and Table 10, below). […] Table 9. KinomeScan (DiscoverRx) profiling of OGM1.

CDC2L5 = target: T10, CDC2L5 (Homo sapiens, UniProt Q14004); assay: KinomeScan; assay type: binding; details: read-out: % Control
T10 construct: purchased DiscoveRx (KinomeScan service)
Experimental: as §1, §2

NEK3 = target: T11, NEK3 (Homo sapiens, UniProt P51956); assay: KinomeScan; assay type: binding; details: read-out: % Control
T11 construct: purchased DiscoveRx

ERK3 = target: T12, ERK3 (Homo sapiens, UniProt Q16659); assay: KinomeScan; assay type: binding; details: read-out: % Control
T12 construct: purchased DiscoveRx (Fremont, CA)

CCR10 = target: T13, CCR10 (Homo sapiens, UniProt P46092); assay: GPCR Profiler; assay type: cell-based
T13 construct: host or cells: Chem-1 cells with Gα15

BB1 = target: T14, BB1 (Homo sapiens, UniProt P28336); assay: GPCR Profiler; assay type: cell-based
T14 construct: host or cells: Chem-1 cells with promiscuous Gα15

CDC2L1 = target: T15, CDC2L1 (Homo sapiens, UniProt P21127); assay: KinomeScan; assay type: binding; details: read-out: % Control
T15 construct: purchased DiscoveRx (KinomeScan service)

JNK3 = target: T16, JNK3 (Homo sapiens, UniProt P53779); assay: KinomeScan; assay type: binding; details: read-out: % Control
T16 construct: purchased DiscoveRx

H2 = target: T17, H2 (Homo sapiens, UniProt P25021); assay: GPCR Profiler; assay type: cell-based
T17 construct: host or cells: Chem-1 cells with promiscuous Gα15

M2 = target: T18, M2 (Homo sapiens, UniProt P08172); assay: GPCR Profiler; assay type: cell-based
T18 construct: host or cells: Chem-1 cells with promiscuous Gα15

PRKD3 = target: T19, PRKD3 (Homo sapiens, UniProt O94806); assay: KinomeScan; assay type: binding; details: read-out: % Control
T19 construct: purchased DiscoveRx (Fremont, CA)

K-562 = assay: Cell Titer-Glo viability, Chronic myelogenous leukemia; assay type: cell-based
Experimental: (§3) OGM2 kills wide variety of cancer cell types. Cell sensitivity can be classified in to Very Sensitive (LC50<2 μM), Sensitive (LC50=2 to 10 μM), Mildly Sensitive (LC50>10 μM), and Refractory (no killing at 10 μM). The listed established cell were incubated with OGM2 at 2 μM or 10 μM for 72 hours under standard cell culture conditions, and relative cell number was assessed using Cell Titer-Glo Luminescent Cell Viability Assay (Promega™) following the manufacturer's instructions. Luminescence was determined using a Cytation 5 reader and Gen5 software package (BioTek™).
(§4) Cancer cells, which are very sensitive to killing by OGM2 (LCs <2 μM), with reported mRNA expression of GPR68 and the related proton sensing receptor GPR4. LC50's (concentrations causing 50% lethality) were determined using CellTiter-Glo (Promega™, G7570). Cells were plated in 12-well plates (CELLTREAT Scientific Products, 229112) in 1 ml of DMEM with high glucose, GlutaMAX, HEPES, or RPMI 1640 with Penicillin-Streptomycin (ThermoFisher™, 10564029, 11875119 and 15140122) and 10% FBS. Cells were incubated overnight at 37° C. in 5% CO2. Then 1 mL of fresh media was added with DMSO, OGM, or positive control (Erastin; APExBIO Technology, LLC, B1524) and cells incubated for 3 days. On the third day, all media was removed, cells were rinsed with 1×PBS, PBS was removed, and 200 μL of 1× Passive Lysis Buffer (Promega™, E1941) was added to each well. […]. Subsequently, 20 μL of lysate was added to 100 μL CellTiter-Glo™ reagent on a LUMITRAC 200 plate (Greiner™ bio-one, 82050-726). Plates were briefly spun down and read on a GloMax-Multi Detection System (Promega™).
(§5) The cells listed in the tables above were incubated with OGM2 at 2 μM or 10 μM for 72 hours under standard cell culture conditions, and relative cell number was assessed using Cell Titer-Glo Luminescent Cell Viability Assay (Promega™) following the manufacturer's instructions. Luminescence was determined using a Cytation 5 reader and Gen5 software package (BioTek™). RNA expression of GPR68 and GPR4 in the corresponding cancer cell lines are listed, according to the publicly available The Human Protein Atlas version 22.0 and Ensembl version 103.38 (see proteinatlas.org). The consensus normalized expression value (“nTPM”=normalize transcript per million) was calculated as the maximum nTPM value for each gene in the two data sources.

NCI-H460 = assay: Cell Titer-Glo viability, Lung cancer, Large cell; assay type: cell-based
Experimental: as §3, §4, §5

T17 sequence (P25021 whole entry): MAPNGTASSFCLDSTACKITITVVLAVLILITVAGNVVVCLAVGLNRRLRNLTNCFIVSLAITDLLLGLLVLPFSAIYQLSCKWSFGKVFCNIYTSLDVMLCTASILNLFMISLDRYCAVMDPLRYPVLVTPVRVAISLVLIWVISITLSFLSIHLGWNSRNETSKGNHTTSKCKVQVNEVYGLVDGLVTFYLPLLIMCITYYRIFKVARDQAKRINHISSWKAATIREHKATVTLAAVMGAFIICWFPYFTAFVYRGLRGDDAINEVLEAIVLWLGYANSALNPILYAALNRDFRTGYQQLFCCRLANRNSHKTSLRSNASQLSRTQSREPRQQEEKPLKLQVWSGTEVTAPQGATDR
T13 sequence (P46092 whole entry): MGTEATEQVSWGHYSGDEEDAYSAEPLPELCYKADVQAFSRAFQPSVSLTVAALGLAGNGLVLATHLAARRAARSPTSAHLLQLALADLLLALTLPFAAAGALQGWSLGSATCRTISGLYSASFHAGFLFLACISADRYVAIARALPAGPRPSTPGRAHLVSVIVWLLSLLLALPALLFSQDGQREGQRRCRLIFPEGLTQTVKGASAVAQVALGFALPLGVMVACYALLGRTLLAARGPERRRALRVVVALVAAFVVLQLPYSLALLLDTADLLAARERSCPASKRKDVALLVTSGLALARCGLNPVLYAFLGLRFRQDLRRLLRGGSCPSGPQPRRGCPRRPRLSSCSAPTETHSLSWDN
T14 sequence (P28336 whole entry): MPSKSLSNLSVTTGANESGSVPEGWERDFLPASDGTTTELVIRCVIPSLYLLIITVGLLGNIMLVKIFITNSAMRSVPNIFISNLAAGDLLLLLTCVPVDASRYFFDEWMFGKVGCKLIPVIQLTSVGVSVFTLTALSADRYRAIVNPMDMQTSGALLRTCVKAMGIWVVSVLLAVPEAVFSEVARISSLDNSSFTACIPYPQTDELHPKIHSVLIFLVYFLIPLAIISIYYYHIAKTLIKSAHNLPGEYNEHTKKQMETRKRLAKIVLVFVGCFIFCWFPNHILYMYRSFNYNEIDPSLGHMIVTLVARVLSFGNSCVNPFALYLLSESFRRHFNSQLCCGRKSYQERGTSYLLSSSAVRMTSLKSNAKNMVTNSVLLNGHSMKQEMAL
T18 sequence (P08172 whole entry): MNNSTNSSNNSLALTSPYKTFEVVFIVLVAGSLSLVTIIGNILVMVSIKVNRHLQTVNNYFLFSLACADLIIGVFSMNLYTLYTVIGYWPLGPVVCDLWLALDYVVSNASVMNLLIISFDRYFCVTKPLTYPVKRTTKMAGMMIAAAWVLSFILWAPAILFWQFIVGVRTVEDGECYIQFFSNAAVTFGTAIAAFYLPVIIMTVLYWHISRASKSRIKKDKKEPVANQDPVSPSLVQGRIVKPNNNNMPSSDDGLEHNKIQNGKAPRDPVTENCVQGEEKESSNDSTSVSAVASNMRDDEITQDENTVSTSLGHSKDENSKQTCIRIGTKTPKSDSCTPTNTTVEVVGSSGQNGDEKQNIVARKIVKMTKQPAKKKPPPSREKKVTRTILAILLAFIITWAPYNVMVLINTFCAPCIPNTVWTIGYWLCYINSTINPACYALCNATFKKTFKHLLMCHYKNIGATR
T10 sequence (Q14004 whole entry): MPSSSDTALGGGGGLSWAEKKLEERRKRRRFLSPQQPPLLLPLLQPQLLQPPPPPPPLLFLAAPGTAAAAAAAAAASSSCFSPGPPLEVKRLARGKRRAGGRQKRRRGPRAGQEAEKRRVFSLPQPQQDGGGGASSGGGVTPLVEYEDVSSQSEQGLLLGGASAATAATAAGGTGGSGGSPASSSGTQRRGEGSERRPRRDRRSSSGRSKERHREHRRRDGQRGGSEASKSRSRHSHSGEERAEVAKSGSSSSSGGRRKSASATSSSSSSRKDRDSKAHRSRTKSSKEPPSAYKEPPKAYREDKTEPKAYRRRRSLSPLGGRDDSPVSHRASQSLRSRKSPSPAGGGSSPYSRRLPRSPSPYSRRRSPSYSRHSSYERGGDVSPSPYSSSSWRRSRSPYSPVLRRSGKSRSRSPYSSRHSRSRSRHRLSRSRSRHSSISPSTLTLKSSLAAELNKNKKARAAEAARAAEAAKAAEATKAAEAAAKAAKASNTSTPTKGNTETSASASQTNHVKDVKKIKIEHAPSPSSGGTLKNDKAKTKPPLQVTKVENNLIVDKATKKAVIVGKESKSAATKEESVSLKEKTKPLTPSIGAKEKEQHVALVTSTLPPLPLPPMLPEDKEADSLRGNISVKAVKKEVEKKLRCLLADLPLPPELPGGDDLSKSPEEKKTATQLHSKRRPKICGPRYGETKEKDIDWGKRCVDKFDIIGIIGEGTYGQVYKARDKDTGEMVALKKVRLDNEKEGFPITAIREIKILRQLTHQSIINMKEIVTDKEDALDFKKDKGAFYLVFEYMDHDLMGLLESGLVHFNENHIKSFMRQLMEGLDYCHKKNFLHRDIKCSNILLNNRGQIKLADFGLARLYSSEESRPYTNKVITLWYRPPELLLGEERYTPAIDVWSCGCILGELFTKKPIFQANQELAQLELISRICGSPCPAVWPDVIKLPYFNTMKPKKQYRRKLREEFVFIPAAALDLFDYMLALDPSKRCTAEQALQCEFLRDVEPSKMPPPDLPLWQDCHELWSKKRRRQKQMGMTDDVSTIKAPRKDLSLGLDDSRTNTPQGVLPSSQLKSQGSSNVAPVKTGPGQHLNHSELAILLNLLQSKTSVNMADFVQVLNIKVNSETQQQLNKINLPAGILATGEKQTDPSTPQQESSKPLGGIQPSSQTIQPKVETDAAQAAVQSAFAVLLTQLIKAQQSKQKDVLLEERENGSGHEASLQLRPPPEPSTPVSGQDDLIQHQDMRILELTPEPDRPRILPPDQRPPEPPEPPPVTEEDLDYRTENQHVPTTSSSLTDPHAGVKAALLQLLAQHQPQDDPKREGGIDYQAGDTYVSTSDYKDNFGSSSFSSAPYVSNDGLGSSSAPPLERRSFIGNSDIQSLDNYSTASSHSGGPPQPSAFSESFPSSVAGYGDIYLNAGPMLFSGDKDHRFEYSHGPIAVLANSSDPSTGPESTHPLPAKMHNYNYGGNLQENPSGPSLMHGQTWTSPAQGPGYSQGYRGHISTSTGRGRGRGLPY
T8 sequence (Q07912 whole entry): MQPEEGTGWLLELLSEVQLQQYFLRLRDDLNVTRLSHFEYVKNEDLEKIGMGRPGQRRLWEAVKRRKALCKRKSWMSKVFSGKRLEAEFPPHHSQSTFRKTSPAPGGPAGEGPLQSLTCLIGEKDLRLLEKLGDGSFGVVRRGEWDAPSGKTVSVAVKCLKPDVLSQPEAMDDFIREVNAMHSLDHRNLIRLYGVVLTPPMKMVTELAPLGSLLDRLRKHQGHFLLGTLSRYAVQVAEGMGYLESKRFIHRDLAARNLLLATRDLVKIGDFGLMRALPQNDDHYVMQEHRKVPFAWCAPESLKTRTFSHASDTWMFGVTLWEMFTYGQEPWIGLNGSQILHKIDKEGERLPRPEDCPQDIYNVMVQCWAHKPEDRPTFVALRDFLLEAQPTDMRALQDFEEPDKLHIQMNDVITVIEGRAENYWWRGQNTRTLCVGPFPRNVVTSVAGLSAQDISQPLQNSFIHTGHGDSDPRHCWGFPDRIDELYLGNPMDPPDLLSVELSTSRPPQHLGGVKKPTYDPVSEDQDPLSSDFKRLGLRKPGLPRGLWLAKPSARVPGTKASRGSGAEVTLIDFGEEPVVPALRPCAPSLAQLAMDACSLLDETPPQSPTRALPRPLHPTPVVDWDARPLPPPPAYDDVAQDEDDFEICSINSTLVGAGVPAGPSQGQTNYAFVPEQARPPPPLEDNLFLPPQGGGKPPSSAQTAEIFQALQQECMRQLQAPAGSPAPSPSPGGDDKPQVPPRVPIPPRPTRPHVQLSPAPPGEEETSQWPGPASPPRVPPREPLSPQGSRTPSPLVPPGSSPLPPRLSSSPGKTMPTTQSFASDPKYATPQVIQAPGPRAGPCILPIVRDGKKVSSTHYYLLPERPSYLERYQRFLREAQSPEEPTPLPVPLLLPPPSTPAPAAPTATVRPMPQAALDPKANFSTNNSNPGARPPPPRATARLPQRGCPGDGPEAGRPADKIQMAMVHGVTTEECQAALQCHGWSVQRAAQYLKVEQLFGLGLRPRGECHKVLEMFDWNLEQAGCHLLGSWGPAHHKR
T6 sequence (O14965 whole entry): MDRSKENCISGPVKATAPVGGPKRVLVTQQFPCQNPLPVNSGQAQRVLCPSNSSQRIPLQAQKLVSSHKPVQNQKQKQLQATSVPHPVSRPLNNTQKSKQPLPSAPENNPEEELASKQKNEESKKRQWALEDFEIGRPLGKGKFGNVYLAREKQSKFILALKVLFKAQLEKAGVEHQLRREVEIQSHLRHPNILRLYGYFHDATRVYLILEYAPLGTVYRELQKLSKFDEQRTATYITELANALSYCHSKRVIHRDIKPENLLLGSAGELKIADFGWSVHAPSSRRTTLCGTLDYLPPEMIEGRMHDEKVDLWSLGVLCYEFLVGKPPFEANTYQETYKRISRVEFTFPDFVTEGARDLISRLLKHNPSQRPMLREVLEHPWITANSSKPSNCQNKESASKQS
T11 sequence (P51956 whole entry): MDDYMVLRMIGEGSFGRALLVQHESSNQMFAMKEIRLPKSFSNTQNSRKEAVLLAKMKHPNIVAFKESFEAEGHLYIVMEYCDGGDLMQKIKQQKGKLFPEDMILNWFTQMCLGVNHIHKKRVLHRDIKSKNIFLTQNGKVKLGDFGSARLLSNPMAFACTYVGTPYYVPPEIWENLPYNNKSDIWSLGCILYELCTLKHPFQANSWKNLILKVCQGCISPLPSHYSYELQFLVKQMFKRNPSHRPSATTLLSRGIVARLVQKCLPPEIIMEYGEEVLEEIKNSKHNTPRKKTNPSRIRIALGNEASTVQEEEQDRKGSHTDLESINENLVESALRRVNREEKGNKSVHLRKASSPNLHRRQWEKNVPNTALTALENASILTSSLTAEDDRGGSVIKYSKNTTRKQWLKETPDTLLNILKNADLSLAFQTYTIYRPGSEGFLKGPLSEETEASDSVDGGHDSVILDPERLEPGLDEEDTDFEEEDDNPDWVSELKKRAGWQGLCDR

**Q.** With `CCc1ccc2c(c1)C1(NN=C(c3cccc4ccccc34)S1)C(=O)N2` (stereo not shown) [OGM1, 5-ethyl-5′-naphthalen-1-ylspiro[1H-indole-3,2′-3H-1,3,4-thiadiazole]-2-one] as the molecule, how does the remaining binding at 10 µM (NEK9) read?
**A.** 100%

**Q.** What about the remaining binding at 10 µM (CASK) of the same molecule?
**A.** 90%

**Q.** What about the remaining binding at 10 µM (ACVRLI) of the same molecule?
**A.** 100%

**Q.** What about the remaining binding at 10 µM (EPHA7) of the same molecule?
**A.** 100%

**Q.** What about the remaining binding at 10 µM (KIT(D816H)) of the same molecule?
**A.** 97%

**Q.** And the remaining binding at 10 µM (AURKA)?
**A.** 100%

**Q.** What about the remaining binding at 10 µM (PAK6) of the same molecule?
**A.** 89%

**Q.** What about the remaining binding at 10 µM (TNK2) of the same molecule?
**A.** 100%

**Q.** And the remaining binding at 10 µM (PRP4)?
**A.** 100%

**Q.** What about the remaining binding at 10 µM (CDC2L5) of the same molecule?
**A.** 99%

**Q.** And the remaining binding at 10 µM (NEK3)?
**A.** 71%

**Q.** What about the remaining binding at 10 µM (ERK3) of the same molecule?
**A.** 100%

**Q.** And the Antagonism (CCR10; 10 uM)?
**A.** −16.7

**Q.** And the Agonism (CCR10; 12.5 uM)?
**A.** −0.2

**Q.** And the Antagonism (BB1; 10 uM)?
**A.** 3.5

**Q.** What about the Agonism (BB1; 12.5 uM) of the same molecule?
**A.** −0.2

**Q.** And the remaining binding at 10 µM (CDC2L1)?
**A.** 92%

**Q.** What about the remaining binding at 10 µM (JNK3) of the same molecule?
**A.** 82%

**Q.** And the Antagonism (H2; 10 uM)?
**A.** 1.3

**Q.** What about the Agonism (H2; 12.5 uM) of the same molecule?
**A.** 0.1

**Q.** What about the Antagonism (M2; 10 uM) of the same molecule?
**A.** 3.3

**Q.** What about the Agonism (M2; 12.5 uM) of the same molecule?
**A.** −0.1

**Q.** What about the remaining binding at 10 µM (PRKD3) of the same molecule?
**A.** 100%

**Q.** How did the Class (K-562) turn out when `CCc1ccc2c(c1)C1(NN=C(c3ccccc3)S1)C(=O)N2` (stereo not shown) [OGM2] was run?
**A.** Sensitive (Sensitive (LC50=2 to 10 μM))

**Q.** What about the “% Survival 2 μM OGM” value (K-562; 72 hours) of the same molecule?
**A.** 56.7%

**Q.** What about the “% Survival 10 μM OGM” value (K-562; 72 hours) of the same molecule?
**A.** 37.0%

**Q.** What about the CC50 (K-562; Homo sapiens, K562, 72 hours, read-out: LC50 (the source's name)) of the same molecule?
**A.** 2 to 10 µM

**Q.** And the Class (NCI-H460)?
**A.** Sensitive (Sensitive (LC50=2 to 10 μM))

**Q.** What about the “% Survival 2 μM OGM” value (NCI-H460; 72 hours) of the same molecule?
**A.** 51.7%

**Q.** And the “% Survival 10 μM OGM” value (NCI-H460; 72 hours)?
**A.** 26.5%

**Q.** What about the CC50 (NCI-H460; Homo sapiens, NCI-H460, 72 hours, read-out: LC50 (the source's name)) of the same molecule?
**A.** 2 to 10 µM
